Assays:
[1] = test system: women suffering from postpartum depression; conditions: women with postpartum depression, cited from earlier work
[2] = human plasma; cited from earlier work
[3] = Ganaxolone concentration reached in 30% Captisol solutions (HPLC); format: physicochemical; conditions: dry mixing method, after 90 hours of stirring
Protocol: 500 μl of 10% aqueous Polysorbate 80 solution in a 20 ml scintillation vial were combined with powdered ganaxolone (50 mg). The mixture was stirred to wet the ganaxolone. Solid Captisol (3.2 g), sufficient to form a 30% Captisol solution, was then added to the vial and the vial contents were mixed. Deionized water (8.0 g) was then added and the mixture was vigorously stirred at room temperature overnight to obtain a hazy solution. An aliquot was filtered through 0.2 μm syringe filter and ganaxolone concentration was assayed by HPLC to be 4.28 mg/ml.
Ganaxolone was vigorously stirred in 30% Captisol in the presence of 10% v/v ethanol overnight to obtain a 3.16 mg/ml ganaxolone solution.
Ganaxolone was vigorously stirred in 30% Captisol in the presence of 10% v/v glycerin overnight to obtain a 3.45 mg/ml ganaxolone solution.
Ganaxolone was vigorously stirred in 30% Captisol in the presence of 10% v/v propylene glycol overnight to obtain a 2.53 mg/ml ganaxolone solution.
Powdered ganaxolone (125 mg) was charged into 100 ml beaker. Captisol powder (7.9 g) was then added to the beaker. The mixture was mixed by stirring with a magnetic stir bar for 5 minutes. Deionized water (20.1 g) was weighed into a plastic cup. About half of the water was added into the beaker and the contents were vigorously stirred for 30 minutes to obtain a homogeneous mixture. […]

[4] = Ganaxolone solubility in water

SMILES | mean HAM-D score lower than placebo-treated subjects ([1]; end of sixty hour intravenous infusion, baseline HAM-D greater than 25) [points] | persistence of effects after infusion ([1]; after intravenous infusion) [days] | half-life [2] | ganaxolone concentration after prolonged stirring [3] | solubility [4] [µg/mL]
CC(=O)[C@H]1CC[C@H]2[C@@H]3CC[C@H]4C[C@H](O)CC[C@]4(C)[C@H]3CC[C@]12C [Allopregnanolone, 3α,5α-tetrahydroprogesterone] | 12 | 30 | about 45 minutes |  | 
CC(=O)[C@H]1CC[C@H]2[C@@H]3CC[C@H]4C[C@](C)(O)CC[C@]4(C)[C@H]3CC[C@]12C [Ganaxolone, 3α-hydroxy, 3β-methyl-5α-pregnan-20-one] |  |  |  | remained unchanged | < 1

Source: patent US11000531B2, “Methods of treating certain depressive disorders and delirium tremens” (MARINUS PHARMACEUTICALS INC., priority 2016, dated 2021)
